Measurements: paper PMC11855478, “Bicyclic N,S-Acetals Containing Fused Cysteine-Amide System as New Heterocyclic Class Targeting Human Farnesyltransferase (FTase-h)” (International Journal of Molecular Sciences, 2025)

Key:
Assay type in all cases: cell-based, human
[1] = test system: NCI-H322M (Non-Small Cell Lung Cancer); test: NCI one dose, NCI-H322M; settings: 1.00E-5 Molar one dose
Protocol: (§1) 3.4. Cell Proliferation Assay
(§2) Selected compounds were tested on a panel of 60 human cancer cell lines at the National Cancer Institute (NCI), Germantown, MD, USA. The cytotoxicity studies were conducted using a 48 h exposure protocol using the sulfo-rhodamine B assay.

OVCAR-3 (Ovarian Cancer) = test: NCI one dose, OVCAR-3; settings: OVCAR-3, 1.00E-5 Molar one dose
Protocol: as §1, §2

[2] = test system: EKVX (Non-Small Cell Lung Cancer); test: NCI one dose, EKVX; settings: 1.00E-5 Molar one dose
Protocol: as §1, §2

SW-620 (Colon Cancer) = test: NCI one dose, SW-620; settings: SW-620, 1.00E-5 Molar one dose
Protocol: as §1, §2

BT-549 (Breast Cancer) = test: NCI one dose, BT-549; settings: BT-549, 1.00E-5 Molar one dose
Protocol: as §1, §2

UO-31 renal cancer cells = test: NCI one dose, UO-31; settings: UO-31, 1.00E-5 Molar one dose
Protocol: as §1, §2

786-0 (Renal Cancer) = test: NCI one dose, 786-0; settings: 786-0, 1.00E-5 Molar one dose
Protocol: as §1, §2

CCRF-CEM (Leukemia) = test: NCI one dose, CCRF-CEM; settings: 1.00E-5 Molar one dose
Protocol: as §1, §2

OVCAR-8 (Ovarian Cancer) = test: NCI one dose, OVCAR-8; settings: OVCAR-8, 1.00E-5 Molar one dose
Protocol: as §1, §2

CAKI-1 (Renal Cancer) = test: NCI one dose, CAKI-1; settings: CAKI-1, 1.00E-5 Molar one dose
Protocol: as §1, §2

SK-OV-3 (Ovarian Cancer) = test: NCI one dose, SK-OV-3; settings: SK-OV-3, 1.00E-5 Molar one dose
Protocol: as §1, §2

[3] = test system: HOP-92 (Non-Small Cell Lung Cancer); test: NCI one dose, HOP-92; settings: HOP-92, 1.00E-5 Molar one dose
Protocol: as §1, §2

K-562 leukaemia cells = test: NCI one dose, K-562; settings: K-562, 1.00E-5 Molar one dose
Protocol: as §1, §2

TK-10 (Renal Cancer) = test: NCI one dose, TK-10; settings: TK-10, 1.00E-5 Molar one dose
Protocol: as §1, §2

[4] = test system: NCI/ADR-RES (Ovarian Cancer); test: NCI one dose, NCI/ADR-RES; settings: 1.00E-5 Molar one dose
Protocol: as §1, §2

SF-539 (CNS Cancer) = test: NCI one dose, SF-539; settings: SF-539, 1.00E-5 Molar one dose
Protocol: as §1, §2

SK-MEL-5 (Melanoma) = test: NCI one dose, SK-MEL-5; settings: SK-MEL-5, 1.00E-5 Molar one dose
Protocol: as §1, §2

M14 (Melanoma) = test: NCI one dose, M14; settings: M14, 1.00E-5 Molar one dose
Protocol: as §1, §2

UACC-62 (Melanoma) = test: NCI one dose, UACC-62; settings: UACC-62, 1.00E-5 Molar one dose
Protocol: as §1, §2

[5] = test system: NCI-H522 non-small cell lung cancer cells; test: NCI cell proliferation, NCI-H522; settings: for inhibition at 10 µM: Homo sapiens, NCI-H522, read-out: % Cancer cell growth Inhibition (NCI-H522); for Growth Percent: NCI-H522, 1.00E-5 Molar one dose
Protocol: as §1, §2

HT29 (Colon Cancer) = test: NCI one dose, HT29; settings: HT29, 1.00E-5 Molar one dose
Protocol: as §1, §2

KM12 (Colon Cancer) = test: NCI one dose, KM12; settings: KM12, 1.00E-5 Molar one dose
Protocol: as §1, §2

[6] = test system: MDA-MB-231/ATCC (Breast Cancer); test: NCI one dose, MDA-MB-231/ATCC; settings: 1.00E-5 Molar one dose
Protocol: as §1, §2

RXF 393 (Renal Cancer) = test: NCI one dose, RXF 393; settings: RXF 393, 1.00E-5 Molar one dose
Protocol: as §1, §2

OVCAR-5 (Ovarian Cancer) = test: NCI one dose, OVCAR-5; settings: OVCAR-5, 1.00E-5 Molar one dose
Protocol: as §1, §2

SNB-19 (CNS Cancer) = test: NCI one dose, SNB-19; settings: SNB-19, 1.00E-5 Molar one dose
Protocol: as §1, §2

OVCAR-4 (Ovarian Cancer) = test: NCI one dose, OVCAR-4; settings: OVCAR-4, 1.00E-5 Molar one dose
Protocol: as §1, §2

HS 578T (Breast Cancer) = test: NCI one dose, HS 578T; settings: 1.00E-5 Molar one dose
Protocol: as §1, §2

LOX IMVI (Melanoma) = test: NCI one dose, LOX IMVI; settings: 1.00E-5 Molar one dose
Protocol: as §1, §2

SMILES | Growth Percent [1] [%] | Growth Percent (OVCAR-3 (Ovarian Cancer)) [%] | Growth Percent [2] [%] | Growth Percent (SW-620 (Colon Cancer)) [%] | Growth Percent (BT-549 (Breast Cancer)) [%] | Growth Percent (UO-31 renal cancer cells) [%] | Growth Percent (786-0 (Renal Cancer)) [%] | Growth Percent (CCRF-CEM (Leukemia)) [%] | Growth Percent (OVCAR-8 (Ovarian Cancer)) [%] | Growth Percent (CAKI-1 (Renal Cancer)) [%] | Growth Percent (SK-OV-3 (Ovarian Cancer)) [%] | Growth Percent [3] [%] | Growth Percent (K-562 leukaemia cells) [%] | Growth Percent (TK-10 (Renal Cancer)) [%] | Growth Percent [4] [%] | Growth Percent (SF-539 (CNS Cancer)) [%] | Growth Percent (SK-MEL-5 (Melanoma)) [%] | Growth Percent (M14 (Melanoma)) [%] | Growth Percent (UACC-62 (Melanoma)) [%] | inhibition at 10 µM [5] [%] | other results
COc1ccc(CNC(=O)[C@@H]2CS[C@H]3c4ccccc4C(=O)N23)cc1 [4aF] | 88.19 | 106.29 | 106.31 | 105.03 | 103.55 | 75.18 | 97.97 | 97.27 | 99.52 | 97.50 | 99.01 | 86.03 | 99.90 | 105.25 | 103.64 | 107.51 | 110.95 | 99.91 | 91.16 | 13 | Growth Percent [5]: 87.40%; Growth Percent (HT29 (Colon Cancer)): 103.88%; Growth Percent (KM12 (Colon Cancer)): 100.55%; Growth Percent [6]: 107.73%; Growth Percent (RXF 393 (Renal Cancer)): 117.51%; Growth Percent (OVCAR-5 (Ovarian Cancer)): 95.48%; Growth Percent (SNB-19 (CNS Cancer)): 90.14%; Growth Percent (OVCAR-4 (Ovarian Cancer)): 110.64%; Growth Percent (HS 578T (Breast Cancer)): 104.20%; Growth Percent (LOX IMVI (Melanoma)): 100.31%
COc1cc(CNC(=O)[C@@H]2CS[C@H]3c4ccccc4C(=O)N23)cc(OC)c1OC [4aJ] | 107.00 | 105.82 | 101.46 | 104.14 | 92.77 | 84.08 | 90.66 | 96.01 | 103.46 | 95.05 | 93.11 | 93.68 | 90.55 | 103.10 | 95.00 | 89.92 | 107.99 | 94.92 | 92.01 | 17 | Growth Percent [5]: 83.00%; Growth Percent (HT29 (Colon Cancer)): 103.83%; Growth Percent (KM12 (Colon Cancer)): 103.41%; Growth Percent [6]: 84.71%; Growth Percent (RXF 393 (Renal Cancer)): 110.79%; Growth Percent (OVCAR-5 (Ovarian Cancer)): 94.62%; Growth Percent (SNB-19 (CNS Cancer)): 92.64%; Growth Percent (OVCAR-4 (Ovarian Cancer)): 104.76%; Growth Percent (HS 578T (Breast Cancer)): 101.31%; Growth Percent (LOX IMVI (Melanoma)): 99.61%
